{"source": "PubChem BioAssay AID2060610", "about": "(Molecular Pharmacology Branch, DTP, NCI, 2025)", "system": "616215-338-R-J1-PDC complex spheroids, viability % test/control", "assay": "Anticancer human tumor 616215-338-R-J1-PDC patient-derived colon adenocarcinoma cell line growth inhibition [CLK]", "conditions": "for pIC50: curve of first compound; for viability, T/C: stronger effect = lower value", "outline": "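Multi-cell-type spheroids combined patient-derived tumor cells with HUVEC endothelial cells and human mesenchymal stem cells. Paired agents were dosed in half-log steps down from about clinical Cmax, or from 10 microM where Cmax was unknown.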", "key": {"[1]": {"conditions": "second compound 0.0316 µM, first compound 0.0316 µM"}, "[2]": {"conditions": "second compound 0.0316 µM, first compound 0.1 µM"}, "[3]": {"conditions": "second compound 0.0316 µM, first compound 0.316 µM"}, "[4]": {"conditions": "second compound 0.0316 µM, first compound 1 µM"}, "[5]": {"conditions": "second compound 0.0316 µM, first compound 3.16 µM"}, "[6]": {"conditions": "second compound 0.0316 µM, first compound 10 µM"}, "[7]": {"conditions": "second compound 0.1 µM, first compound 0.0316 µM"}, "[8]": {"conditions": "second compound 0.1 µM, first compound 0.1 µM"}, "[9]": {"conditions": "second compound 0.1 µM, first compound 0.316 µM"}, "[10]": {"conditions": "second compound 0.1 µM, first compound 1 µM"}, "[11]": {"conditions": "second compound 0.1 µM, first compound 3.16 µM"}, "[12]": {"conditions": "second compound 0.1 µM, first compound 10 µM"}, "[13]": {"conditions": "second compound 0.316 µM, first compound 0.0316 µM"}, "[14]": {"conditions": "second compound 0.316 µM, first compound 0.1 µM"}, "[15]": {"conditions": "second compound 0.316 µM, first compound 0.316 µM"}, "[16]": {"conditions": "second compound 0.316 µM, first compound 1 µM"}, "[17]": {"conditions": "second compound 0.316 µM, first compound 3.16 µM"}, "[18]": {"conditions": "second compound 0.316 µM, first compound 10 µM"}, "[19]": {"conditions": "second compound 1 µM, first compound 0.0316 µM"}, "[20]": {"conditions": "second compound 1 µM, first compound 0.1 µM"}, "[21]": {"conditions": "second compound 1 µM, first compound 0.316 µM"}, "[22]": {"conditions": "second compound 1 µM, first compound 1 µM"}, "[23]": {"conditions": "second compound 1 µM, first compound 3.16 µM"}, "[24]": {"conditions": "second compound 1 µM, first compound 10 µM"}, "[25]": {"conditions": "second compound 3.16 µM, first compound 0.0316 µM"}, "[26]": {"conditions": "second compound 3.16 µM, first compound 0.1 µM"}, "[27]": {"conditions": "second compound 3.16 µM, first compound 0.316 µM"}, "[28]": {"conditions": "second compound 3.16 µM, first compound 1 µM"}, "[29]": {"conditions": "second compound 3.16 µM, first compound 3.16 µM"}, "[30]": {"conditions": "second compound 3.16 µM, first compound 10 µM"}, "[31]": {"conditions": "second compound 10 µM, first compound 0.0316 µM"}, "[32]": {"conditions": "second compound 10 µM, first compound 0.1 µM"}, "[33]": {"conditions": "second compound 10 µM, first compound 0.316 µM"}, "[34]": {"conditions": "second compound 10 µM, first compound 1 µM"}, "[35]": {"conditions": "second compound 10 µM, first compound 3.16 µM"}, "[36]": {"conditions": "second compound 10 µM, first compound 10 µM"}}, "note": "pIC50: −log10 of the molar value."}
{"compound": "COc1ccc([C@@H](O)c2cc(-c3ncnc4cc(N5CCOCC5)ccc34)c(F)cc2Cl)nn1", "note": "+ CNC(=O)c1ccc(Nc2nc(OC3CCCC3)c3c(-c4ccc5nc(C)oc5c4)c[nH]c3n2)c(OC)c1;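 note: spheroids exposed to agents for 7 days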;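 for viability, T/C: 100% = DMSO vehicle wells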", "values": [{"measurement": "pIC50", "setting": "second compound 0.0316 µM", "result": "< 5.00"}, {"measurement": "pIC50", "setting": "second compound 0.1 µM", "result": "> 7.50"}, {"measurement": "pIC50", "setting": "second compound 0.316 µM", "result": "> 7.50"}, {"measurement": "pIC50", "setting": "second compound 1 µM", "result": "> 7.50"}, {"measurement": "pIC50", "setting": "second compound 3.16 µM", "result": "> 7.50"}, {"measurement": "pIC50", "setting": "second compound 10 µM", "result": "> 7.50"}, {"measurement": "viability, T/C", "setting": "[1]", "result": 90.8, "unit": "%"}, {"measurement": "viability, T/C", "setting": "[2]", "result": 103, "unit": "%"}, {"measurement": "viability, T/C", "setting": "[3]", "result": 99.1, "unit": "%"}, {"measurement": "viability, T/C", "setting": "[4]", "result": 100, "unit": "%"}, {"measurement": "viability, T/C", "setting": "[5]", "result": 114, "unit": "%"}, {"measurement": "viability, T/C", "setting": "[6]", "result": 72.5, "unit": "%"}, {"measurement": "viability, T/C", "setting": "[7]", "result": 45.1, "unit": "%"}, {"measurement": "viability, T/C", "setting": "[8]", "result": 45.4, "unit": "%"}, {"measurement": "viability, T/C", "setting": "[9]", "result": 43.4, "unit": "%"}, {"measurement": "viability, T/C", "setting": "[10]", "result": 45.3, "unit": "%"}, {"measurement": "viability, T/C", "setting": "[11]", "result": 43.2, "unit": "%"}, {"measurement": "viability, T/C", "setting": "[12]", "result": 28.8, "unit": "%"}, {"measurement": "viability, T/C", "setting": "[13]", "result": 46.3, "unit": "%"}, {"measurement": "viability, T/C", "setting": "[14]", "result": 43.5, "unit": "%"}, {"measurement": "viability, T/C", "setting": "[15]", "result": 39.4, "unit": "%"}, {"measurement": "viability, T/C", "setting": "[16]", "result": 37.9, "unit": "%"}, {"measurement": "viability, T/C", "setting": "[17]", "result": 32.4, "unit": "%"}, {"measurement": "viability, T/C", "setting": "[18]", "result": 28, "unit": "%"}, {"measurement": "viability, T/C", "setting": "[19]", "result": 40.1, "unit": "%"}, {"measurement": "viability, T/C", "setting": "[20]", "result": 39.9, "unit": "%"}, {"measurement": "viability, T/C", "setting": "[21]", "result": 38.9, "unit": "%"}, {"measurement": "viability, T/C", "setting": "[22]", "result": 38.8, "unit": "%"}, {"measurement": "viability, T/C", "setting": "[23]", "result": 32.2, "unit": "%"}, {"measurement": "viability, T/C", "setting": "[24]", "result": 22.6, "unit": "%"}, {"measurement": "viability, T/C", "setting": "[25]", "result": 49.7, "unit": "%"}, {"measurement": "viability, T/C", "setting": "[26]", "result": 43.7, "unit": "%"}, {"measurement": "viability, T/C", "setting": "[27]", "result": 41, "unit": "%"}, {"measurement": "viability, T/C", "setting": "[28]", "result": 32.6, "unit": "%"}, {"measurement": "viability, T/C", "setting": "[29]", "result": 30.6, "unit": "%"}, {"measurement": "viability, T/C", "setting": "[30]", "result": 20.8, "unit": "%"}, {"measurement": "viability, T/C", "setting": "[31]", "result": 49.1, "unit": "%"}, {"measurement": "viability, T/C", "setting": "[32]", "result": 41.5, "unit": "%"}, {"measurement": "viability, T/C", "setting": "[33]", "result": 38.8, "unit": "%"}, {"measurement": "viability, T/C", "setting": "[34]", "result": 37.1, "unit": "%"}, {"measurement": "viability, T/C", "setting": "[35]", "result": 27.2, "unit": "%"}, {"measurement": "viability, T/C", "setting": "[36]", "result": 19.1, "unit": "%"}]}
{"compound": "COc1cccc2c1C(=O)c1c(O)c3c(c(O)c1C2=O)CC(O)(C(=O)CO)CC3OC1CC(N)C(O)C(C)O1", "note": "(centres undefined) + CNC(=O)c1ccc(Nc2nc(OC3CCCC3)c3c(-c4ccc5nc(C)oc5c4)c[nH]c3n2)c(OC)c1", "values": [{"measurement": "pIC50", "setting": "second compound 0.0316 µM", "result": 6.48}, {"measurement": "pIC50", "setting": "second compound 0.1 µM", "result": 6.47}, {"measurement": "pIC50", "setting": "second compound 0.316 µM", "result": "> 7.50"}, {"measurement": "pIC50", "setting": "second compound 1 µM", "result": 6.31}, {"measurement": "pIC50", "setting": "second compound 3.16 µM", "result": 6.26}, {"measurement": "pIC50", "setting": "second compound 10 µM", "result": 6.27}, {"measurement": "viability, T/C", "setting": "[1]", "result": 111, "unit": "%"}, {"measurement": "viability, T/C", "setting": "[2]", "result": 72.6, "unit": "%"}, {"measurement": "viability, T/C", "setting": "[3]", "result": 54.1, "unit": "%"}, {"measurement": "viability, T/C", "setting": "[4]", "result": 34.5, "unit": "%"}, {"measurement": "viability, T/C", "setting": "[5]", "result": 1.22, "unit": "%"}, {"measurement": "viability, T/C", "setting": "[6]", "result": 0.82, "unit": "%"}, {"measurement": "viability, T/C", "setting": "[7]", "result": 53.8, "unit": "%"}, {"measurement": "viability, T/C", "setting": "[8]", "result": 57.7, "unit": "%"}, {"measurement": "viability, T/C", "setting": "[9]", "result": 42.7, "unit": "%"}, {"measurement": "viability, T/C", "setting": "[10]", "result": 35.9, "unit": "%"}, {"measurement": "viability, T/C", "setting": "[11]", "result": 0.57, "unit": "%"}, {"measurement": "viability, T/C", "setting": "[12]", "result": 0.99, "unit": "%"}, {"measurement": "viability, T/C", "setting": "[13]", "result": 55.7, "unit": "%"}, {"measurement": "viability, T/C", "setting": "[14]", "result": 47.1, "unit": "%"}, {"measurement": "viability, T/C", "setting": "[15]", "result": 46.8, "unit": "%"}, {"measurement": "viability, T/C", "setting": "[16]", "result": 42.1, "unit": "%"}, {"measurement": "viability, T/C", "setting": "[17]", "result": 0.32, "unit": "%"}, {"measurement": "viability, T/C", "setting": "[18]", "result": 0.17, "unit": "%"}, {"measurement": "viability, T/C", "setting": "[19]", "result": 49.7, "unit": "%"}, {"measurement": "viability, T/C", "setting": "[20]", "result": 61.3, "unit": "%"}, {"measurement": "viability, T/C", "setting": "[21]", "result": 75.6, "unit": "%"}, {"measurement": "viability, T/C", "setting": "[22]", "result": 30.7, "unit": "%"}, {"measurement": "viability, T/C", "setting": "[23]", "result": 0.2, "unit": "%"}, {"measurement": "viability, T/C", "setting": "[24]", "result": 0.17, "unit": "%"}, {"measurement": "viability, T/C", "setting": "[25]", "result": 61.8, "unit": "%"}, {"measurement": "viability, T/C", "setting": "[26]", "result": 66.6, "unit": "%"}, {"measurement": "viability, T/C", "setting": "[27]", "result": 81.3, "unit": "%"}, {"measurement": "viability, T/C", "setting": "[28]", "result": 28.3, "unit": "%"}, {"measurement": "viability, T/C", "setting": "[29]", "result": 0.16, "unit": "%"}, {"measurement": "viability, T/C", "setting": "[30]", "result": 2.18, "unit": "%"}, {"measurement": "viability, T/C", "setting": "[31]", "result": 58.2, "unit": "%"}, {"measurement": "viability, T/C", "setting": "[32]", "result": 56, "unit": "%"}, {"measurement": "viability, T/C", "setting": "[33]", "result": 79.7, "unit": "%"}, {"measurement": "viability, T/C", "setting": "[34]", "result": 32.4, "unit": "%"}, {"measurement": "viability, T/C", "setting": "[35]", "result": 0.24, "unit": "%"}, {"measurement": "viability, T/C", "setting": "[36]", "result": 1.24, "unit": "%"}]}
